Measurements taken from patent US20080274060A1, “Therapeutic Foam” (priority 2005, published 2008).

Assay: In vitro absorption of foam/gas in fresh human venous blood
Format: in vitro ADME
Procedure: In vitro experiments were conducted to determine the absorption of foam made with different gases in fresh human venous blood.
A 20 ml polypropylene syringe barrel was prepared by puncturing its side wall with a relatively large hypodermic needle to make a hole approximately 1 mm in diameter. This hole was then covered by securing a piece of clear flexible vinyl sheet over it with clear adhesive tape. A small magnetic stirrer element was introduced into the syringe barrel and the plunger then replaced. 20 ml of human venous blood was then with withdrawn in the usual manner from a human subject using the specially prepared syringe fitted with a hypodermic needle.
The hypodermic needle was removed and the syringe then placed on a magnetic stirrer unit so that the magnetic element in the syringe thoroughly agitated the blood. The Luer nozzle of the syringe was then connected to a 50 cm piece of manometer tubing which was arranged horizontally and left open at one end. The manometer tubing was secured against a scale.
A 0.5 ml measuring syringe with a fine pre-fitted needle was then filled with foam made from 1% polidocanol solution and air.
The needle of the 0.5 ml syringe was then introduced through the vinyl sheet on the side wall of the 20 ml syringe. […] The 0.5 ml aliquot of foam was then injected quickly and simultaneously a timer started (t0). As the foam displaced blood in the 20 ml syringe, the column of blood from the 20 ml syringe was displaced into the manometer tubing and the distance along the tubing reached by the distal end of the blood column was noted against the scale. The scale itself comprised spaced marker lines equally spaced at about 1 cm intervals.
As the gas in the foam started to be absorbed by the blood, the blood in the manometer tubing started to recede back towards the syringe. After the column appeared to have stopped moving, the timer was stopped (tF). The position of the distal end was again noted.
In this experiment, the air foam test was only observed for a few minutes after tF. […] A 20 ml syringe of fresh human venous blood, as in the above experiments, was injected with a 0.5 ml aliquot of a foam containing a percentage of nitrogen. The contents of the syringe were agitated as above and a period of 24 hours allowed to elapse.

Absorbed volume at tF (0.5 ml aliquot in 20 ml blood): 0.46 mL | Unabsorbed gas % (at tF): 8% | Unabsorbed gas ml (at tF): 0.04 mL | Position of blood at tF ("z") (manometer scale intervals, 45 intervals approx. 0.5 ml): 5.5 | tF (time until blood column stopped moving, 0.5 ml aliquot in 20 ml blood): 140 s
Compound: O=O [Oxygen gas, oxygen gas]
